Laboratory results published in publication PMC6882135 (ACS Omega, 2019).

Legend:
human HDAC11 [1] = target: T1, human HDAC11 (Homo sapiens, UniProt Q96DB2); assay: Continuous fluorescence HDAC11 activity assay with peptidic substrate 1; assay type: biochemical
T1 sequence (Q96DB2 1-347): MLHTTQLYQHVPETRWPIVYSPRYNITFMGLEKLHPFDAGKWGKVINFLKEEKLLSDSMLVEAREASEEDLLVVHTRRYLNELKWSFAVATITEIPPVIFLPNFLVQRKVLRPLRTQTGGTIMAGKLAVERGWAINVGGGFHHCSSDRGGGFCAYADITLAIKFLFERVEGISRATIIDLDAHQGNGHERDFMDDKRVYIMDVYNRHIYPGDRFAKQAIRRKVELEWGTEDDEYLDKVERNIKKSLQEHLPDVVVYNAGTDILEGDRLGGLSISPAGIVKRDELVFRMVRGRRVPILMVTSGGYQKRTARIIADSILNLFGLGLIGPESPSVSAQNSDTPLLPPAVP

human HDAC11 [2] = target: T1, human HDAC11; assay: Discontinuous fluorescence-based; assay type: biochemical

Compound	IC50 (human HDAC11 [1]) [µM]	IC50 (human HDAC11 [2]) [µM]
CCCC(CCC)C(=O)O [valproate]	> 40	> 40
C/C=C1\NC(=O)[C@H]2CSSCC/C=C/[C@H](CC(=O)N[C@H](C(C)C)C(=O)N2)OC(=O)[C@H](C(C)C)NC1=O [romidepsin]		4.81 ± 0.04
Nc1ccccc1NC(=O)c1ccc(CNc2nccc(-c3cccnc3)n2)cc1 [mocetinostat, N-(2-aminophenyl)-4-(4-pyridin-3-ylpyrimidin-2-ylamino)methylbenzamide]	> 40	> 40
